In patent US20250257051A1, “SUBSTITUTED PYRIMIDINE COMPOUNDS AS TYK2 INHIBITORS” (1910 Genetics Inc., priority 2022, published 2025) one finds Kd data, which are given here for 26 molecules.

Counter-ions that a name gives are not always drawn.

The target in one test is human TYK2 (JH2domain-pseudokinase) (Homo sapiens (Human), UniProt P29597). The experiment in a line: TYK2 JH2 Domain Binding Assay (KINOMEscan competition binding). The following applies: KINOMEscan; 11-point 3-fold dilution, top concentration 30,000 nM; Kd measurements in duplicate; read-out: TYK JH2 (Kd). The procedure: Binding constants for compounds disclosed herein may be determined by the KINOMEscan® assay developed by DiscoveRx. KINOMEscan® is based on a competition binding assay that quantitatively measures the ability of a compound to compete with an immobilized, active-site directed ligand. The assay is performed by combining three components: DNA-tagged kinase; immobilized ligand; and a test compound. The ability of the test compound to compete with the immobilized ligand is measure via quantitative PCR of the DNA tag.
Sequence of human TYK2 (JH2domain-pseudokinase) (P29597 556-888): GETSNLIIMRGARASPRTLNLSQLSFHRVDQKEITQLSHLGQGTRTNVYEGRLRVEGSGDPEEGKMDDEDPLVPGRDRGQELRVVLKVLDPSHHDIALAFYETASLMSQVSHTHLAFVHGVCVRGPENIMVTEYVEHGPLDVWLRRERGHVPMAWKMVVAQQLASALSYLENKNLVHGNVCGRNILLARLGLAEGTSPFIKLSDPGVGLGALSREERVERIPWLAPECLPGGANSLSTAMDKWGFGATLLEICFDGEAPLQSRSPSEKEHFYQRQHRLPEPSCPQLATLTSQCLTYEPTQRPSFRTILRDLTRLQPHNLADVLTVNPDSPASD
Binding constants for compounds disclosed herein against the JH2 domain are determined by the following protocol for a KINOMEscan® assay (DiscoveRx). A fusion protein of a partial length construct of human TYK2 (JH2domain-pseudokinase) (amino acids G556 to D888 based on reference sequence NP 003322.3) and the DNA binding domain of NFkB is expressed in transiently transfected HEK293 cells. From these HEK 293 cells, extracts are prepared in M-PER extraction buffer (Pierce) in the presence of Protease Inhibitor Cocktail Complete (Roche) and Phosphatase Inhibitor Cocktail Set II (Merck) per manufacturers' instructions. The TYK2 (JH2domain-pseudokinase) fusion protein is labeled with a chimeric double-stranded DNA tag containing the NFkB binding site (5′-GGGAATTCCC-3′) fused to an amplicon for qPCR readout, which is added directly to the expression extract (the final concentration of DNA-tag in the binding reaction is 0.1 nM).
Streptavidin-coated magnetic beads (Dynal M280) are treated with a biotinylated small molecule ligand for 30 minutes at room temperature to generate affinity resins for the binding assays. The liganded beads are blocked with excess biotin and washed with blocking buffer (SeaBlock (Pierce), 1% BSA, 0.05% Tween 20, 1 mM DTT) to remove unbound ligand and to reduce nonspecific binding.
Extracts are used directly in binding assays without any enzyme purification steps at a >10,000-fold overall stock dilution (final DNA tagged enzyme concentration<0.1 nM). Extracts are loaded with DNA-tag and diluted into the binding reaction in a two-step process. First extracts are diluted 1:100 in 1× binding buffer (PBS/0.05% Tween 20/10 mM DTT/0.1% BSA/[…] sonicated salmon sperm DNA) containing 10 nM DNA-tag. This dilution is allowed to equilibrate at room temperature for 15 minutes and then subsequently diluted 1:100 in 1× binding buffer. Test compounds are prepared as 111× stocks in 100% DMSO. Kds are determined using an 11-point 3-fold compound dilution series with three DMSO control points. All compounds for Kd measurements are distributed by acoustic transfer (non-contact dispensing) in 100% DMSO. The compounds are then diluted directly into the assays such that the final concentration of DMSO is 0.9%. All reactions performed in polypropylene 384-well plates. Each is a final volume of 0.02 mL. Assays are incubated with shaking for 1 hour at room temperature. Then the beads are pelleted and washed with wash buffer (lx PBS, 0.05% Tween 20) to remove displaced kinase and test compound. The washed beads are re-suspended in elution buffer (lx PBS, 0.05% Tween 20, 0.5 μM non-biotinylated affinity ligand) and incubated at room temperature with shaking for 30 minutes. The kinase concentration in the eluates is measured by qPCR. qPCR reactions are assembled by adding 2.5 μL of kinase eluate to 7.5 μL of qPCR master mix containing 0.15 μM amplicon primers and 0.15 μM amplicon probe. The qPCR protocol consists of a 10-minute hot start at 95° C., followed by 35 cycles of 95° C. for 15 seconds, 60° C. for 1 minute.
Test compounds are prepared as 111× stocks in 100% DMSO. Kds are determined using an 11-point 3-fold compound dilution series with three DMSO control points. All compounds for Kd measurements are distributed by acoustic transfer (non-contact dispensing) in 100% DMSO. The compounds are then diluted directly into the assays such that the final concentration of DMSO is 0.9%. […]
As a reminder, the Kd is the equilibrium constant for the complex coming apart. As to `CNC(=O)c1cnc(N2CCN(C(=O)OC(C)(C)C)CC2C)nc1Nc1cccc(-c2ncc(F)cn2)c1OC` (centres unmarked) [Compound 26, Tert-Butyl 4-(4-((3-(5-fluoropyrimidin-2-yl)-2-methoxyphenyl)amino)-5-(methylcarbamoyl)pyrimidin-2-yl)-3-methylpiperazine-1-carboxylate], the Kd was found to be 190 nM. With `CNC(=O)c1cnc(N2CCC(C(=O)NC)C2)nc1NC(=O)c1n[nH]c2c(OC)cccc12` (centres unmarked) [Compound 56, 7-methoxy-N-(5-(methylcarbamoyl)-2-(3-(methylcarbamoyl)pyrrolidin-1-yl)pyrimidin-4-yl)-1H-indazole-3-carboxamide], the Kd stood at 11000 nM. Still for that read-out and setting: under `CNC(=O)c1cnc(N2CC[C@@H](C(=O)NC)C2)nc1Nc1ccc(C2CC2)nc1` [Compound 9, (R)-4-((6-cyclopropylpyridin-3-yl)amino)-N-methyl-2-(3-(methylcarbamoyl)pyrrolidin-1-yl)pyrimidine-5-carboxamide] stands 240 nM. Still for that read-out and setting: to `CS(=O)(=O)c1ccccc1Nc1nc(N2CCC(C(=O)O)CC2)ncc1C(N)=O` [Compound 78, 1-(5-carbamoyl-4-((2-(methylsulfonyl)phenyl)amino)pyrimidin-2-yl)piperidine-4-carboxylic Acid] belongs 330 nM.

Regarding `CNC(=O)c1cnc(N2CCCC2)nc1Nc1ccc(C(=O)N2CCOCC2)cc1` [Compound 8, N-methyl-4-((4-(morpholine-4-carbonyl)phenyl)amino)-2-(pyrrolidin-1-yl)pyrimidine-5-carboxamide], the Kd is 360 nM. On the same count and under the same terms, under `COc1c(Nc2nc(N3CCCN(C(=O)OC(C)(C)C)CC3)ncc2C(N)=O)cccc1-c1ncc(F)cn1` [Compound 71, tert-butyl 4-(S-carbamoyl-4-((3-(5-fluoropyrimidin-2-yl)-2-methoxyphenyl)amino)pyrimidin-2-yl)-1,4-diazepane-1-carboxylate] stands 470 nM; under `COc1ccccc1Nc1nc(N2CCN(C(C)=O)CC2C)ncc1C(N)=O` (centres unmarked) [Compound 59, 2-(4-acetyl-2-methylpiperazin-1-yl)-4-((2-methoxyphenyl)amino)pyrimidine-5-carboxamide], 270 nM. Still for that read-out and setting: to `COc1c(Nc2nc(N3CCC(C(=O)O)CC3)ncc2C(N)=O)cccc1-c1ncc(F)cn1` [Compound 38, 1-(5-carbamoyl-4-((3-(5-fluoropyrimidin-2-yl)-2-methoxyphenyl)amino)pyrimidin-2-yl)piperidine-4-carboxylic Acid] belongs 7.8 nM; to `CNC(=O)c1cnc(N2CCCN(C(C)=O)CC2)nc1Nc1ccc(C2CC2)nc1` [Compound 21, 2-(4-acetyl-1,4-diazepan-1-yl)-4-((6-cyclopropylpyridin-3-yl)amino)-N-methylpyrimidine-5-carboxamide], 14000 nM; to `CNC(=O)c1cnc(N2CC(C(=O)NC)C2)nc1Nc1ccc(C2CC2)nc1` [Compound 51, 4-((6-cyclopropylpyridin-3-yl)amino)-N-methyl-2-(3-(methylcarbamoyl)azetidin-1-yl)pyrimidine-5-carboxamide], 1500 nM.

`CC(=O)N1CCN(c2ncc(C(N)=O)c(Nc3ccc(C4CC4)nc3)n2)C(C)C1` (centres unmarked) [Compound 11, 2-(4-acetyl-2-methylpiperazin-1-yl)-4-((6-cyclopropylpyridin-3-yl)amino)pyrimidine-5-carboxamide]: the Kd was 180 nM.

As for `CNC(=O)c1cnc(N2CCC(C(=O)O)CC2)nc1Nc1cccc(-c2ncc(F)cn2)c1OC` [Compound 27, 1-(4-((3-(5-fluoropyrimidin-2-yl)-2-methoxyphenyl)amino)-5-(methylcarbamoyl)pyrimidin-2-yl)piperidine-4-carboxylic acid], the Kd was 36 nM.

Regarding `O=C(NO)c1cnc(N2CCCC2)nc1Nc1ccc(C2CC2)nc1` [Compound 54, 4-((6-cyclopropylpyridin-3-yl)amino)-N-hydroxy-2-(pyrrolidin-1-yl)pyrimidine-5-carboxamide], the Kd was 160 nM. On the same count and under the same terms, under `CC(=O)N1CCN(c2ncc(C(N)=O)c(Nc3ccccc3S(C)(=O)=O)n2)C(C)C1` (racemic) [Compound 62, 2-(4-acetyl-2-methylpiperazin-1-yl)-4-((2-(methylsulfonyl)phenyl)amino)pyrimidine-5-carboxamide] stands 120 nM; under `CCOC(=O)C1CCN(c2ncc(C(N)=O)c(Nc3ccccc3S(C)(=O)=O)n2)CC1` [Compound 16, Ethyl 1-(5-carbamoyl-4-((2-(methylsulfonyl)phenyl)amino)pyrimidin-2-yl)piperidine-4-carboxylate], 2.6 nM. Still for that read-out and setting: under `CNC(=O)c1cnc(N2CCCN(C(=O)OC(C)(C)C)CC2)nc1Nc1cccc(-c2ncc(F)cn2)c1OC` [Compound 72, Tert-Butyl 4-(4-((3-(5-fluoropyrimidin-2-yl)-2-methoxyphenyl)amino)-5-(methylcarbamoyl)pyrimidin-2-yl)-1,4-diazepane-1-carboxylate] stands 4500 nM; under `CNC(=O)c1cnc(N2CCNCC2C)nc1Nc1ccccc1S(C)(=O)=O` (centres unmarked) [Compound 69, N-methyl-2-(2-methylpiperazin-1-yl)-4-((2-(methylsulfonyl)phenyl)amino)pyrimidine-5-carboxamide Hydrochloride], 1800 nM. Still for that read-out and setting: to `COc1ccccc1Nc1nc(N2CCCN(C(=O)OC(C)(C)C)CC2)ncc1C(N)=O` [Compound 41, Tert-Butyl 4-(5-carbamoyl-4-((2-methoxyphenyl)amino)pyrimidin-2-yl)-1,4-diazepane-1-carboxylate] belongs 19000 nM; to `CCOC(=O)C1CCN(c2ncc(C(N)=O)c(Nc3ccc(C4CC4)nc3)n2)CC1` [Compound 36, Ethyl 1-(5-carbamoyl-4-((6-cyclopropylpyridin-3-yl)amino)pyrimidin-2-yl)piperidine-4-carboxylate], 660 nM. In the case of `CNC(=O)c1cnc(N2CCCN(C(=O)OC(C)(C)C)CC2)nc1Nc1ccccc1OC` [Compound 30, Tert-Butyl 4-(4-((2-methoxyphenyl)amino)-5-(methylcarbamoyl)pyrimidin-2-yl)-1,4-diazepane-1-carboxylate], the Kd came out at 44000 nM. Same read-out and setting: to `CNC(=O)c1cnc(N2CCCNCC2)nc1Nc1ccc(C2CC2)nc1` [Compound 22, 4-((6-cyclopropylpyridin-3-yl)amino)-2-(1,4-diazepan-1-yl)-N-methylpyrimidine-5-carboxamide Hydrochloride] belongs 11000 nM; to `CC(C)(C)OC(=O)N1CCCN(c2ncc(C(N)=O)c(Nc3ccc(C4CC4)nc3)n2)CC1` [Compound 47, Tert-Butyl 4-(S-carbamoyl-4-((6-cyclopropylpyridin-3-yl)amino)pyrimidin-2-yl)-1,4-diazepane-1-carboxylate], 6700 nM; to `CNC(=O)c1cnc(N2CCN(C(=O)OC(C)(C)C)CC2C)nc1Nc1ccccc1OC` (centres unmarked) [Compound 32, Tert-Butyl 4-(4-((2-methoxyphenyl)amino)-5-(methylcarbamoyl)pyrimidin-2-yl)-3-methylpiperazine-1-carboxylate], 17000 nM.

The same test, now with this note: Table 4: pyrimidinyl compound of Formula I versus compounds with a different heteroaryl core; read-out: TYK JH2 (Kd).
In the case of `CNC(=O)c1cnc(N2CCC(C(=O)NC)C2)nc1Nc1ccc(C2CC2)nc1` (centres unmarked) [drawing 147], the Kd was found to be 170 nM. On the same count and under the same terms, to `CNC(=O)c1cnc(N2CCC(C(=O)NC)C2)cc1Nc1ccc(C2CC2)nc1` (centres unmarked) [reference compound] belongs 10000 nM; to `CNC(=O)c1nnc(N2CCC(C(=O)NC)C2)cc1Nc1ccc(C2CC2)nc1` (centres unmarked) [reference compound], 31000 nM.
